# Numbers after ± are expanded uncertainties.
# Details: 293.15 K; 101.33 kPa; Liquid; Pycnometric method
row,SMILES,mass density [kg/m3]
1,Clc1ccccc1 [chlorobenzene],1106 ± 6.3
2,CN(C)C=O [dimethylformamide],948.7 ± 5.9

# Same assay, conditions: 298.15 K; 101.33 kPa; Liquid; Pycnometric method
row,SMILES,mass density [kg/m3]
1,"Cc1ccccc1C [1,2-dimethylbenzene]",875.9 ± 5.8
2,CC#N [acetonitrile],776.5 ± 1.2
3,C=CC#N [acrylonitrile],800.3 ± 5.7
4,Nc1ccccc1 [aniline],1017.3 ± 6.1
5,CCCCCCO [hexan-1-ol],815.3 ± 1.2
6,O=[N+]([O-])c1ccccc1 [nitrobenzene],1198 ± 6.5
